Patent US20250302039A1, “USE OF N-SUBSTITUTED PYRROLIDONES TO PROMOTE THE PENETRATION OF AGROCHEMICAL ACTIVE AGENTS” (priority 2016, published 2025)

Assays:
Assay type in all cases: physicochemical
[1] = Microscopy studies: crystallization behavior after 18 hours of drying; conditions: 1 g/L; 1 μL on silanized glass slide; 18 hours of drying at 25° C., 53% relative air humidity; 400× magnification
Text: The following solutions 1) to 6) were produced:
Solution of 1 g of rynaxypyr in one liter of a mixture of acetone and distilled water at a weight ratio of acetone:distilled water of 30:70.
Solution of 1 g of rynaxypyr in one liter of a mixture of N-(n-butyl)-2-pyrrolidone and distilled water at a weight ratio of N-(n-butyl)-2-pyrrolidone:distilled water of 30:70.
Solution of 1 g of emamectin benzoate in one liter of a mixture of acetone and distilled water at a weight ratio of acetone:distilled water of 30:70.
Solution of 1 g of emamectin benzoate in one liter of a mixture of N-(n-butyl)-2-pyrrolidone and distilled water at a weight ratio of N-(n-butyl)-2-pyrrolidone:distilled water of 30:70.
Solution of 1 g of abamectin in one liter of a mixture of acetone and distilled water at a weight ratio of acetone:distilled water of 30:70.
Solution of 1 g of abamectin in one liter of a mixture of N-(n-butyl)-2-pyrrolidone and distilled water at a weight ratio of N-(n-butyl)-2-pyrrolidone:distilled water of 30:70.
The procedure as described hereinafter was followed with solutions 1) to 6) (see steps A) to C)): • A) 1 μL of the above-described solutions 1) to 6) in each case was applied to silanized glass microscope slides. • B) The solutions were left to stand on the microscope slides at a temperature of 25° C. and 53% relative air humidity over 18 hours, in the course of which drying took place. • C) Thereafter, the microscope slides were assessed and photos were taken at the original edge of the droplets with 400-fold magnification.
The photos for the active agrochemical ingredient abamectin are shown in FIG. 2A and FIG. 2B, those for the active agrochemical ingredient rynaxapyr in FIG. 3A and FIG. 3B, and those for the active agrochemical ingredient emamectin benzoate in FIG. 4A and FIG. 4B.

[2] = Miscibility of N-(n-butyl)-2-pyrrolidone with solvents; conditions: with water, propylene glycol, polyethylene glycol, dimethylamide, Solvesso® 200 ND, alkylated vegetable oil or mineral oils
Text: In addition, the N-substituted pyrrolidones of the formula (I) can also be combined advantageously with various water-immiscible solvents and may serve as cosolvents in solvent-containing formulations, for example in emulsion concentrates (EC), oil dispersions (OD), suspoemulsions (SE) and microemulsions (ME).

[3] = Solutions of active ingredients in N-(n-butyl)-2-pyrrolidone; conditions: solvent N-(n-butyl)-2-pyrrolidone; based on the total weight of the solution

Row | Compound | crystallization behavior in N-(n-butyl)-2-pyrrolidone/water (30:70) solution [1] | crystallization behavior in acetone/water (30:70) solution [1] | miscibility with solvents [2] | amount of active ingredient in solutions prepared with N-(n-butyl)-2-pyrrolidone [3]
1 | emamectin benzoate | remaining dissolved | crystallized out | – | –
2 | CNC(=O)c1cc(Cl)cc(C)c1NC(=O)c1cc(Br)nn1-c1ncccc1Cl [rynaxypyr] | remaining dissolved | crystallized out | – | –
3 | CCCCN1CCCC1=O [N-(n-Butyl)-2-pyrrolidone, N-(n-butyl)-2-pyrrolidone] | – | – | miscible in all ratios | –
4 | OC(Cc1ccccc1Cl)(Cn1nc[nH]c1=S)C1(Cl)CC1 (centres unmarked) [prothioconazole] | – | – | – | greater than 35 % by weight
5 | abamectin | remaining dissolved | crystallized out | – | –
